Molecular target: T1, Estrogen receptor (Homo sapiens, UniProt P03372); also: in other assays of this panel Not Active means under 50% inhibition at 10 µM
T1 sequence (P03372 whole entry): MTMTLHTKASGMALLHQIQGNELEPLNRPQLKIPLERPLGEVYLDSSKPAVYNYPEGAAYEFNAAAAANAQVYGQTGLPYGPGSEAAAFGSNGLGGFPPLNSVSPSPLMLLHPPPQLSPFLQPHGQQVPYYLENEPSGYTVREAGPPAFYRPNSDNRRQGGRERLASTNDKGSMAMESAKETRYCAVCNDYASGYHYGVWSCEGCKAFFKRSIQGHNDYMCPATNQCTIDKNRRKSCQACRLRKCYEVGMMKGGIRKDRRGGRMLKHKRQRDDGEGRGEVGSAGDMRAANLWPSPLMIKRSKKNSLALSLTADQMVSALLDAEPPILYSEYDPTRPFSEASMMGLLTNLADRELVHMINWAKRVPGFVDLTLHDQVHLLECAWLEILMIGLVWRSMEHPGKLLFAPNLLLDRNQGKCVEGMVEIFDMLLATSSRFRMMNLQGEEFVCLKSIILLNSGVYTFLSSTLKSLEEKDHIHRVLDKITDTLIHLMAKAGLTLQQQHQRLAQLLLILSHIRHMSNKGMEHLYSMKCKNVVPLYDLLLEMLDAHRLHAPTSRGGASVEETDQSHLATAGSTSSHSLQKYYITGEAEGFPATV
Conditions: sf9

Compound	IC50	Ki
Nc1ccc(S(=O)(=O)NC(=O)c2ccccc2)cc1 [SULFABENZAMIDE]	Not Active	–
CCCCCCCCNC(C)C(O)c1ccc(SC(C)C)cc1 (stereo not drawn) [SULOCTIDIL]	Not Active	–
TRANSPLATIN	Not Active	Not Active
ZIRCONIUM(IV) CHLORIDE	Not Active	Not Active

Test system: not listed separately
Experiment: DRUGMATRIX: Glutamate, AMPA radioligand binding (ligand: [3H] AMPA)
Format: cell membranes, Rattus norvegicus, Wistar, Cerebral cortex, Membrane
Conditions: Not Active = under 50% inhibition at 10 µM

Compound	IC50	Ki
C[C@@](Cc1ccc(O)c(O)c1)(NN)C(=O)O.O [CARBIDOPA]	Not Active	Not Active
COC(=O)[C@H]1[C@H]2C[C@@H]3c4[nH]c5cc(OC)ccc5c4CCN3C[C@H]2C[C@@H](OC(=O)c2cc(OC)c(OC)c(OC)c2)[C@@H]1OC [RESERPINE]	Not Active	Not Active
O=C1C[C@@H]2OCC=C3CN4CC[C@]56c7ccccc7N1[C@H]5[C@H]2[C@H]3C[C@H]46 [STRYCHNINE]	Not Active	Not Active
Nc1ccc(S(=O)(=O)NC(=O)c2ccccc2)cc1 [SULFABENZAMIDE]	Not Active	Not Active
CCCCCCCCNC(C)C(O)c1ccc(SC(C)C)cc1 (stereo not drawn) [SULOCTIDIL]	Not Active	Not Active
O=c1[nH]c(=O)n(C2CCCO2)cc1F (stereo not drawn) [TEGAFUR]	Not Active	Not Active
CC(=N)S [THIOACETAMIDE]	Not Active	Not Active
CC(=O)OCC(COC(C)=O)OC(C)=O [TRIACETIN]	Not Active	Not Active
CN1CCN(CCCN2c3ccccc3Sc3ccc(C(F)(F)F)cc32)CC1 [TRIFLUOPERAZINE]	Not Active	Not Active
TRANSPLATIN	Not Active	Not Active
ZIRCONIUM(IV) CHLORIDE	Not Active	Not Active

Molecular target: Mu-type opioid receptor (Homo sapiens, UniProt P35372)
Experiment: DRUGMATRIX: Opiate mu (OP3, MOP) radioligand binding (ligand: [3H] Diprenorphine)
Format: cell membranes, CHO-K1, Membrane
Conditions: Not Active = under 50% inhibition at 10 µM

Mu-type opioid receptor, sequence (P35372 whole entry): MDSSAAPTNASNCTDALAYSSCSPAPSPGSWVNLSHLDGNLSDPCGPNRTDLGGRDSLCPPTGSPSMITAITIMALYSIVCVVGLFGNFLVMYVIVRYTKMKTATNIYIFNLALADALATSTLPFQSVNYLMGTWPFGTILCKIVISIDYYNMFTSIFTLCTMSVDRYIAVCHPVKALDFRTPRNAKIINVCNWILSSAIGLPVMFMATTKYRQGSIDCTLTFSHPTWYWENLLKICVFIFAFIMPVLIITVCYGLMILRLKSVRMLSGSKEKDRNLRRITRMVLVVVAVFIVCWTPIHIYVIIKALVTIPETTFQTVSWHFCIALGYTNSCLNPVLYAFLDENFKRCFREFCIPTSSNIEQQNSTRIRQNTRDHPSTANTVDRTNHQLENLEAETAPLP

Compound	Ki [nM]
COC(=O)[C@H]1[C@H]2C[C@@H]3c4[nH]c5cc(OC)ccc5c4CCN3C[C@H]2C[C@@H](OC(=O)c2cc(OC)c(OC)c(OC)c2)[C@@H]1OC [RESERPINE]	1690

Same assay, conditions: Not Active = under 50% inhibition at 10 µM; read-out: IC50

Compound	IC50 [µM]
COC(=O)[C@H]1[C@H]2C[C@@H]3c4[nH]c5cc(OC)ccc5c4CCN3C[C@H]2C[C@@H](OC(=O)c2cc(OC)c(OC)c(OC)c2)[C@@H]1OC [RESERPINE]	4.15

Same assay, conditions: cho-k1; Not Active = under 50% inhibition at 10 µM

Compound	IC50
C[C@@](Cc1ccc(O)c(O)c1)(NN)C(=O)O.O [CARBIDOPA]	Not Active
CC(C)NC[C@@H](O)COc1cccc2ccccc12 [DEXPROPRANOLOL]	Not Active
CC(C)NC[C@H](O)COc1cccc2ccccc12 [LEVOPROPRANOLOL]	Not Active
OCCOCCN1CCN(C2=Nc3ccccc3Sc3ccccc32)CC1 [QUETIAPINE]	Not Active
Nc1ccc(S(=O)(=O)NC(=O)c2ccccc2)cc1 [SULFABENZAMIDE]	Not Active
CCCCCCCCNC(C)C(O)c1ccc(SC(C)C)cc1 (stereo not drawn) [SULOCTIDIL]	Not Active
O=c1[nH]c(=O)n(C2CCCO2)cc1F (stereo not drawn) [TEGAFUR]	Not Active
CC(=N)S [THIOACETAMIDE]	Not Active
CC(=O)OCC(COC(C)=O)OC(C)=O [TRIACETIN]	Not Active
CN1CCN(CCCN2c3ccccc3Sc3ccc(C(F)(F)F)cc32)CC1 [TRIFLUOPERAZINE]	Not Active

Test system: not listed separately
Experiment: DRUGMATRIX: Glutamate, Kainate radioligand binding (ligand: [3H] Kainic acid)
Format: cell membranes, Rattus norvegicus, Wistar, Brain, Membrane
Conditions: Not Active = under 50% inhibition at 10 µM

Compound	IC50	Ki
C[C@@](Cc1ccc(O)c(O)c1)(NN)C(=O)O.O [CARBIDOPA]	Not Active	Not Active
COC(=O)[C@H]1[C@H]2C[C@@H]3c4[nH]c5cc(OC)ccc5c4CCN3C[C@H]2C[C@@H](OC(=O)c2cc(OC)c(OC)c(OC)c2)[C@@H]1OC [RESERPINE]	Not Active	Not Active
O=C1C[C@@H]2OCC=C3CN4CC[C@]56c7ccccc7N1[C@H]5[C@H]2[C@H]3C[C@H]46 [STRYCHNINE]	Not Active	Not Active
Nc1ccc(S(=O)(=O)NC(=O)c2ccccc2)cc1 [SULFABENZAMIDE]	Not Active	Not Active
CCCCCCCCNC(C)C(O)c1ccc(SC(C)C)cc1 (stereo not drawn) [SULOCTIDIL]	Not Active	Not Active
O=c1[nH]c(=O)n(C2CCCO2)cc1F (stereo not drawn) [TEGAFUR]	Not Active	Not Active
CC(=N)S [THIOACETAMIDE]	Not Active	Not Active
CC(=O)OCC(COC(C)=O)OC(C)=O [TRIACETIN]	Not Active	Not Active
CN1CCN(CCCN2c3ccccc3Sc3ccc(C(F)(F)F)cc32)CC1 [TRIFLUOPERAZINE]	Not Active	Not Active
TRANSPLATIN	Not Active	Not Active
ZIRCONIUM(IV) CHLORIDE	Not Active	Not Active

Test system: not listed separately
Experiment: DRUGMATRIX: Imidazoline I2, Central radioligand binding (ligand: [3H] Idazoxan)
Format: cell membranes, Rattus norvegicus, Wistar, Cerebral cortex, Membrane
Conditions: Not Active = under 50% inhibition at 10 µM

Compound	IC50	Ki
C[C@@](Cc1ccc(O)c(O)c1)(NN)C(=O)O.O [CARBIDOPA]	Not Active	Not Active
COC(=O)[C@H]1[C@H]2C[C@@H]3c4[nH]c5cc(OC)ccc5c4CCN3C[C@H]2C[C@@H](OC(=O)c2cc(OC)c(OC)c(OC)c2)[C@@H]1OC [RESERPINE]	Not Active	Not Active
O=C1C[C@@H]2OCC=C3CN4CC[C@]56c7ccccc7N1[C@H]5[C@H]2[C@H]3C[C@H]46 [STRYCHNINE]	Not Active	Not Active
Nc1ccc(S(=O)(=O)NC(=O)c2ccccc2)cc1 [SULFABENZAMIDE]	Not Active	Not Active
CCCCCCCCNC(C)C(O)c1ccc(SC(C)C)cc1 (stereo not drawn) [SULOCTIDIL]	Not Active	Not Active
O=c1[nH]c(=O)n(C2CCCO2)cc1F (stereo not drawn) [TEGAFUR]	Not Active	Not Active
CC(=N)S [THIOACETAMIDE]	Not Active	Not Active
CC(=O)OCC(COC(C)=O)OC(C)=O [TRIACETIN]	Not Active	Not Active
CN1CCN(CCCN2c3ccccc3Sc3ccc(C(F)(F)F)cc32)CC1 [TRIFLUOPERAZINE]	Not Active	Not Active
TRANSPLATIN	Not Active	Not Active
ZIRCONIUM(IV) CHLORIDE	Not Active	Not Active

Molecular target: Cytochrome P450 2C9 (Homo sapiens, UniProt P11712); also: in other assays of this panel Not Active means under 50% inhibition at 10 µM
Conditions: bti-tn-5b1-4

Cytochrome P450 2C9, sequence (P11712 whole entry): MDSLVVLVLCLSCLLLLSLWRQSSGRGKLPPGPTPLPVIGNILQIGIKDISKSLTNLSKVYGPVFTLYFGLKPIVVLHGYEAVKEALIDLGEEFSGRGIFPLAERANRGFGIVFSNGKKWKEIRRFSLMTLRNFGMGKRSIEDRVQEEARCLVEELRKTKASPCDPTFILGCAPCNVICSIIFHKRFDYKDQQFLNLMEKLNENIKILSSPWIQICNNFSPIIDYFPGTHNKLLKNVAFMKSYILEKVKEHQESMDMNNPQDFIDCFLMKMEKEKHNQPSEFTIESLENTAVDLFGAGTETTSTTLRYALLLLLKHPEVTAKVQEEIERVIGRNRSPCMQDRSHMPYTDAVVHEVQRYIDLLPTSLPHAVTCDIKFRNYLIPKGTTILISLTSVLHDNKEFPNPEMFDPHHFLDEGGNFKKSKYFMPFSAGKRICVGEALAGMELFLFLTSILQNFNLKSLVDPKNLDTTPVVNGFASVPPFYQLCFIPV

Compound	IC50	Ki
C[C@@](Cc1ccc(O)c(O)c1)(NN)C(=O)O.O [CARBIDOPA]	Not Active	Not Active
CC(C)NC[C@@H](O)COc1cccc2ccccc12 [DEXPROPRANOLOL]	Not Active	Not Active
CC(C)NC[C@H](O)COc1cccc2ccccc12 [LEVOPROPRANOLOL]	Not Active	Not Active
OCCOCCN1CCN(C2=Nc3ccccc3Sc3ccccc32)CC1 [QUETIAPINE]	Not Active	Not Active
COC(=O)[C@H]1[C@H]2C[C@@H]3c4[nH]c5cc(OC)ccc5c4CCN3C[C@H]2C[C@@H](OC(=O)c2cc(OC)c(OC)c(OC)c2)[C@@H]1OC [RESERPINE]	Not Active	Not Active
Nc1ccc(S(=O)(=O)NC(=O)c2ccccc2)cc1 [SULFABENZAMIDE]	Not Active	Not Active
CCCCCCCCNC(C)C(O)c1ccc(SC(C)C)cc1 (stereo not drawn) [SULOCTIDIL]	Not Active	Not Active
O=c1[nH]c(=O)n(C2CCCO2)cc1F (stereo not drawn) [TEGAFUR]	Not Active	Not Active
CC(=N)S [THIOACETAMIDE]	Not Active	Not Active
CC(=O)OCC(COC(C)=O)OC(C)=O [TRIACETIN]	Not Active	Not Active
TRANSPLATIN	Not Active	Not Active
ZIRCONIUM(IV) CHLORIDE	Not Active	Not Active

Molecular target: Sodium-dependent dopamine transporter (Homo sapiens, UniProt Q01959)
Experiment: DRUGMATRIX: Dopamine Transporter radioligand binding (ligand: [125I] RTI-55)
Format: cell membranes, CHO-K1, Membrane
Conditions: cho-k1; Not Active = under 50% inhibition at 10 µM

Sodium-dependent dopamine transporter, sequence (Q01959 whole entry): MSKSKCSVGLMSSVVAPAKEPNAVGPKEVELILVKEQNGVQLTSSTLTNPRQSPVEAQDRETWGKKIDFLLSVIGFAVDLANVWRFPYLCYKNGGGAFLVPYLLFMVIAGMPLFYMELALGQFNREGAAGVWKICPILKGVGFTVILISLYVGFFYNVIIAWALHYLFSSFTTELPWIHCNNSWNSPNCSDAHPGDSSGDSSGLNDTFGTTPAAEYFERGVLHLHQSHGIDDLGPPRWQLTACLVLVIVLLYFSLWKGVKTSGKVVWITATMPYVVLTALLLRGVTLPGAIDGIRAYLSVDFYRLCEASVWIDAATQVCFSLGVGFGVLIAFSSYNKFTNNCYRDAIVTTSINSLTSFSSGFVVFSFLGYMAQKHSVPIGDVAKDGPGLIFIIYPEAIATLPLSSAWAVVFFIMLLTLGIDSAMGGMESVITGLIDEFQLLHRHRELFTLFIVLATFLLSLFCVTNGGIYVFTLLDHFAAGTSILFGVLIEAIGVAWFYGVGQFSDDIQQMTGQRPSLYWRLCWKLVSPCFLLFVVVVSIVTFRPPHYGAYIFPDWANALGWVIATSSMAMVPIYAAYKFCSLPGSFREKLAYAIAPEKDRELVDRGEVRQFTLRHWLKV

Compound	IC50	Ki
C[C@@](Cc1ccc(O)c(O)c1)(NN)C(=O)O.O [CARBIDOPA]	Not Active	–
OCCOCCN1CCN(C2=Nc3ccccc3Sc3ccccc32)CC1 [QUETIAPINE]	Not Active	–
COC(=O)[C@H]1[C@H]2C[C@@H]3c4[nH]c5cc(OC)ccc5c4CCN3C[C@H]2C[C@@H](OC(=O)c2cc(OC)c(OC)c(OC)c2)[C@@H]1OC [RESERPINE]	Not Active	–
O=C1C[C@@H]2OCC=C3CN4CC[C@]56c7ccccc7N1[C@H]5[C@H]2[C@H]3C[C@H]46 [STRYCHNINE]	Not Active	–
Nc1ccc(S(=O)(=O)NC(=O)c2ccccc2)cc1 [SULFABENZAMIDE]	Not Active	–
O=c1[nH]c(=O)n(C2CCCO2)cc1F (stereo not drawn) [TEGAFUR]	Not Active	–
CC(=N)S [THIOACETAMIDE]	Not Active	–
CC(=O)OCC(COC(C)=O)OC(C)=O [TRIACETIN]	Not Active	–
CN1CCN(CCCN2c3ccccc3Sc3ccc(C(F)(F)F)cc32)CC1 [TRIFLUOPERAZINE]	Not Active	–
TRANSPLATIN	Not Active	Not Active
ZIRCONIUM(IV) CHLORIDE	Not Active	Not Active

Test system: not listed separately
Experiment: DRUGMATRIX: Glutamate, NMDA, Phencyclidine radioligand binding (ligand: [3H] TCP)
Format: cell membranes, Rattus norvegicus, Wistar, Cerebral cortex, Membrane
Conditions: Not Active = under 50% inhibition at 10 µM

Compound	IC50	Ki
C[C@@](Cc1ccc(O)c(O)c1)(NN)C(=O)O.O [CARBIDOPA]	Not Active	Not Active
COC(=O)[C@H]1[C@H]2C[C@@H]3c4[nH]c5cc(OC)ccc5c4CCN3C[C@H]2C[C@@H](OC(=O)c2cc(OC)c(OC)c(OC)c2)[C@@H]1OC [RESERPINE]	Not Active	Not Active
O=C1C[C@@H]2OCC=C3CN4CC[C@]56c7ccccc7N1[C@H]5[C@H]2[C@H]3C[C@H]46 [STRYCHNINE]	Not Active	Not Active
Nc1ccc(S(=O)(=O)NC(=O)c2ccccc2)cc1 [SULFABENZAMIDE]	Not Active	Not Active
CCCCCCCCNC(C)C(O)c1ccc(SC(C)C)cc1 (stereo not drawn) [SULOCTIDIL]	Not Active	Not Active
O=c1[nH]c(=O)n(C2CCCO2)cc1F (stereo not drawn) [TEGAFUR]	Not Active	Not Active
CC(=N)S [THIOACETAMIDE]	Not Active	Not Active
CC(=O)OCC(COC(C)=O)OC(C)=O [TRIACETIN]	Not Active	Not Active
CN1CCN(CCCN2c3ccccc3Sc3ccc(C(F)(F)F)cc32)CC1 [TRIFLUOPERAZINE]	Not Active	Not Active
TRANSPLATIN	Not Active	Not Active
ZIRCONIUM(IV) CHLORIDE	Not Active	Not Active

— ChEMBL document CHEMBL1909046, “DrugMatrix in vitro pharmacology data”
